Measured values reported in patent US20160279236A1, “USE OF RAPAMYCIN AS VACCINE ADJUVANT AND PREPARATION METHOD THEREFOR” (INSTITUT PASTEUR OF SHANGHAI, CHINESE ACADEMY OF SCIENCES, priority 2013, published 2016).

How the values were obtained:
[1] = tested on: OVA-specific T cell responses and antibody responses; test: Ovalbumin immunization of mice with adjuvants: OVA-specific T cell and antibody responses; format: in vivo
Experimental: 6-8 weeks aged mice were primarily immunized by the inventors using intraperitoneal injection method, wherein Ovalbumin (10 μg/mouse) was used as antigen and PBS (negative control), MPL (10 μg/mouse, positive control), rapamycin (100 μg/mouse), rapamycin (100 μg/mouse)+MPL (10 μg/mouse) as adjuvant respectively, and were immunized again with ovalbumin (10 μg/mouse, without adjuvant) at 3 weeks. […] After 48 hours, enzyme linked immunosorbent assay (ELISA) was used to determine the content of IFNγ in the supernatant.

[2] = tested on: melanoma murine cell line B16 OVA; test: Tumor growth of B16 OVA melanoma in mice immunized with ovalbumin plus adjuvants; format: in vivo; details: ovalbumin 10 μg/mouse i.p. prime and boost; polyI:C 50 μg, rapamycin 100 μg, MPL 10 μg per mouse; B16 OVA 1×10^6 cells s.c. 4 weeks after secondary immunization
Experimental: By intraperitoneal injecting, 6-8 weeks aged mice were immunized using ovalbumin (10 μg/mouse) as antigen and PBS (200 μl, negative control), polyI:C (Invivogen) (50 μg/mouse), rapamycin (100 μg/mouse), MPL (10 μg/mouse), MPL (10 μg/mouse)+rapamycin (100 μg/mouse), polyI:C (50 μg/mouse)+rapamycin (100 μg/mouse) used as adjuvant to conduct primary immunization. After two weeks, the mice were boosted by the same program. 4 weeks after the secondary immunization, melanoma murine cell line B16 OVA expressing OVA was subcutaneous implanted into mice (1×10^6 cells/mouse), and the tumor growth was measured.

[3] = blood 1 week after secondary immunization, single adjuvants vs negative control, combination vs MPL alone

Substance	OVA-specific IgG1 antibody titers [1, 3]	OVA-specific IgG2b antibody titers [1, 3]	OVA-specific IgG2c antibody titers [1, 3]	OVA-specific CD8+ T cell responses ([1]; mice i.p., ovalbumin 10 μg, MPL 10 μg, rapamycin 100 μg per mouse, IFNγ ELISA of splenic cells stimulated with OVA-1, 48 hours)	OVA-specific CD4+ (Th1) T cell responses ([1]; mice i.p., ovalbumin 10 μg, MPL 10 μg, rapamycin 100 μg per mouse, IFNγ ELISA of splenic cells stimulated with OVA-II, 48 hours)	tumor growth [2]
monophosphoryl lipid A [MPL]	significantly increase	significantly increase	significantly increase	significantly increase	significantly increase	
polyI:C						grew slowly and was of relatively small volume
